Laboratory results: ChEMBL document CHEMBL4020788, “Synthesis, SAR and molecular docking studies of benzo[d]thiazole-hydrazones as potential antibacterial and antifungal agents” (2017)
Values after ≈ are worked out from the molar mass of the structure shown.

Experiments:
Assay type in all cases: functional
[1] = test system: Fusarium verticillioides; experiment: Antifungal activity against Fusarium moniliforme at 25 ug/ml after 48 hrs by agar well diffusion method; details: read-out: DIZ
[2] = test system: Fusarium oxysporum; experiment: Antifungal activity against Fusarium oxysporum after 48 to 72 hrs by microdilution method
[3] = test system: Staphylococcus aureus; experiment: Antibacterial activity against Staphylococcus aureus at 75 ug/ml after 24 hrs by agar well diffusion method; details: read-out: DIZ
[4] = test system: Bacillus subtilis; experiment: Antibacterial activity against Bacillus subtilis at 75 ug/ml after 24 hrs by agar well diffusion method; details: read-out: DIZ
[5] = test system: Escherichia coli; experiment: Antibacterial activity against Escherichia coli at 50 ug/ml after 24 hrs by agar well diffusion method; details: read-out: DIZ
[6] = test system: Klebsiella pneumoniae; experiment: Antibacterial activity against Klebsiella pneumoniae at 25 ug/ml after 24 hrs by agar well diffusion method; details: read-out: DIZ
[7] = test system: Staphylococcus aureus; experiment: Antibacterial activity against methicillin resistant Staphylococcus aureus MRSA090 at 25 ug/ml after 24 hrs by agar well diffusion method; details: MRSA090, 24 h, read-out: DIZ
[8] = test system: Staphylococcus aureus; experiment: Antibacterial activity against methicillin resistant Staphylococcus aureus MRSA090 at 75 ug/ml after 24 hrs by agar well diffusion method; details: MRSA090, 24 h, read-out: DIZ
[9] = test system: Fusarium oxysporum; experiment: Antifungal activity against Fusarium oxysporum at 100 ug/ml after 48 hrs by agar well diffusion method; details: read-out: DIZ
[10] = test system: Aspergillus niger; experiment: Antifungal activity against Aspergillus niger at 25 ug/ml after 48 hrs by agar well diffusion method; details: read-out: DIZ
[11] = test system: Klebsiella pneumoniae; experiment: Antibacterial activity against Klebsiella pneumoniae incubated for overnight by microdilution method
[12] = test system: Fusarium oxysporum; experiment: Antifungal activity against Fusarium oxysporum at 75 ug/ml after 48 hrs by agar well diffusion method; details: read-out: DIZ
[13] = test system: Klebsiella pneumoniae; experiment: Antibacterial activity against Klebsiella pneumoniae at 50 ug/ml after 24 hrs by agar well diffusion method; details: read-out: DIZ
[14] = test system: Bacillus subtilis; experiment: Antibacterial activity against Bacillus subtilis at 50 ug/ml after 24 hrs by agar well diffusion method; details: read-out: DIZ
[15] = test system: Fusarium verticillioides; experiment: Antifungal activity against Fusarium moniliforme at 75 ug/ml after 48 hrs by agar well diffusion method; details: read-out: DIZ
[16] = test system: Aspergillus niger; experiment: Antifungal activity against Aspergillus niger after 48 to 72 hrs by microdilution method
[17] = test system: Aspergillus niger; experiment: Antifungal activity against Aspergillus niger at 100 ug/ml after 48 hrs by agar well diffusion method; details: read-out: DIZ
[18] = test system: Bacillus subtilis; experiment: Antibacterial activity against Bacillus subtilis at 100 ug/ml after 24 hrs by agar well diffusion method; details: read-out: DIZ
[19] = test system: Escherichia coli; experiment: Antibacterial activity against Escherichia coli incubated for overnight by microdilution method
[20] = test system: Fusarium verticillioides; experiment: Antifungal activity against Fusarium moniliforme at 50 ug/ml after 48 hrs by agar well diffusion method; details: read-out: DIZ
[21] = test system: Bacillus subtilis; experiment: Antibacterial activity against Bacillus subtilis incubated for overnight by microdilution method
[22] = test system: Escherichia coli; experiment: Antibacterial activity against Escherichia coli at 25 ug/ml after 24 hrs by agar well diffusion method; details: read-out: DIZ
[23] = test system: Fusarium oxysporum; experiment: Antifungal activity against Fusarium oxysporum at 50 ug/ml after 48 hrs by agar well diffusion method; details: read-out: DIZ
[24] = test system: Fusarium verticillioides; experiment: Antifungal activity against Fusarium moniliforme at 100 ug/ml after 48 hrs by agar well diffusion method; details: read-out: DIZ
[25] = test system: Staphylococcus aureus; experiment: Antibacterial activity against Staphylococcus aureus incubated for overnight by microdilution method
[26] = test system: Escherichia coli; experiment: Antibacterial activity against Escherichia coli at 75 ug/ml after 24 hrs by agar well diffusion method; details: read-out: DIZ
[27] = test system: Staphylococcus aureus; experiment: Antibacterial activity against methicillin resistant Staphylococcus aureus MRSA090 at 100 ug/ml after 24 hrs by agar well diffusion method; details: MRSA090, 24 h, read-out: DIZ
[28] = test system: Bacillus subtilis; experiment: Antibacterial activity against Bacillus subtilis at 25 ug/ml after 24 hrs by agar well diffusion method; details: read-out: DIZ
[29] = test system: Staphylococcus aureus; experiment: Antibacterial activity against Staphylococcus aureus at 100 ug/ml after 24 hrs by agar well diffusion method; details: read-out: DIZ
[30] = test system: Escherichia coli; experiment: Antibacterial activity against Escherichia coli at 100 ug/ml after 24 hrs by agar well diffusion method; details: read-out: DIZ
[31] = test system: Aspergillus niger; experiment: Antifungal activity against Aspergillus niger at 75 ug/ml after 48 hrs by agar well diffusion method; details: read-out: DIZ
[32] = test system: Staphylococcus aureus; experiment: Antibacterial activity against Staphylococcus aureus at 50 ug/ml after 24 hrs by agar well diffusion method; details: read-out: DIZ
[33] = test system: Staphylococcus aureus; experiment: Antibacterial activity against Staphylococcus aureus at 25 ug/ml after 24 hrs by agar well diffusion method; details: read-out: DIZ
[34] = test system: Klebsiella pneumoniae; experiment: Antibacterial activity against Klebsiella pneumoniae at 75 ug/ml after 24 hrs by agar well diffusion method; details: read-out: DIZ
[35] = test system: Klebsiella pneumoniae; experiment: Antibacterial activity against Klebsiella pneumoniae at 100 ug/ml after 24 hrs by agar well diffusion method; details: read-out: DIZ
[36] = test system: Staphylococcus aureus; experiment: Antibacterial activity against methicillin resistant Staphylococcus aureus MRSA090 at 50 ug/ml after 24 hrs by agar well diffusion method; details: MRSA090, 24 h, read-out: DIZ
[37] = test system: Aspergillus niger; experiment: Antifungal activity against Aspergillus niger at 50 ug/ml after 48 hrs by agar well diffusion method; details: read-out: DIZ
[38] = test system: Fusarium verticillioides; experiment: Antifungal activity against Fusarium moniliforme after 48 to 72 hrs by microdilution method
[39] = test system: Staphylococcus aureus; experiment: Antibacterial activity against methicillin resistant Staphylococcus aureus MRSA090 incubated for overnight by microdilution method
[40] = test system: Fusarium oxysporum; experiment: Antifungal activity against Fusarium oxysporum at 25 ug/ml after 48 hrs by agar well diffusion method; details: read-out: DIZ

COc1cc(/C=N/Nc2nc3cccc(C)c3s2)cc(OC)c1OC
zone of inhibition at 25 µg/mL [1]: 23 mm | MIC [2]: 23 µg/mL (≈ 64.3 µM) | zone of inhibition at 75 µg/mL [3]: 33 mm | zone of inhibition at 75 µg/mL [4]: 28 mm | zone of inhibition at 50 µg/mL [5]: 25 mm | zone of inhibition at 25 µg/mL [6]: 21 mm | zone of inhibition at 25 µg/mL [7]: 19 mm | zone of inhibition at 75 µg/mL [8]: 31 mm | zone of inhibition at 100 µg/mL [9]: 20 mm | zone of inhibition at 25 µg/mL [10]: 9 mm | MIC [11]: 22 µg/mL (≈ 61.5 µM) | zone of inhibition at 75 µg/mL [12]: 17 mm | zone of inhibition at 50 µg/mL [13]: 27 mm | zone of inhibition at 50 µg/mL [14]: 24 mm | zone of inhibition at 75 µg/mL [15]: 33 mm | MIC [16]: 30 µg/mL (≈ 83.9 µM) | zone of inhibition at 100 µg/mL [17]: 21 mm | zone of inhibition at 100 µg/mL [18]: 33 mm | MIC [19]: 20 µg/mL (≈ 56 µM) | zone of inhibition at 50 µg/mL [20]: 28 mm | MIC [21]: 18 µg/mL (≈ 50.4 µM) | zone of inhibition at 25 µg/mL [22]: 20 mm | zone of inhibition at 50 µg/mL [23]: 11 mm | zone of inhibition at 100 µg/mL [24]: 37 mm | MIC [25]: 19 µg/mL (≈ 53.2 µM) | zone of inhibition at 75 µg/mL [26]: 31 mm | zone of inhibition at 100 µg/mL [27]: 34 mm | zone of inhibition at 25 µg/mL [28]: 19 mm | zone of inhibition at 100 µg/mL [29]: 38 mm | zone of inhibition at 100 µg/mL [30]: 36 mm | zone of inhibition at 75 µg/mL [31]: 20 mm | zone of inhibition at 50 µg/mL [32]: 28 mm | zone of inhibition at 25 µg/mL [33]: 22 mm | zone of inhibition at 75 µg/mL [34]: 33 mm | zone of inhibition at 100 µg/mL [35]: 38 mm | zone of inhibition at 50 µg/mL [36]: 25 mm | zone of inhibition at 50 µg/mL [37]: 14 mm | MIC [38]: 26 µg/mL (≈ 72.7 µM) | MIC [39]: 19 µg/mL (≈ 53.2 µM) | zone of inhibition at 25 µg/mL [40]: 7 mm

Cc1cccc2nc(N/N=C/c3cc(O)c(O)c(O)c3)sc12
zone of inhibition at 25 µg/mL [1]: 10 mm | MIC [2]: 22 µg/mL (≈ 69.8 µM) | zone of inhibition at 75 µg/mL [3]: 28 mm | zone of inhibition at 75 µg/mL [4]: 27 mm | zone of inhibition at 50 µg/mL [5]: 20 mm | zone of inhibition at 25 µg/mL [6]: 17 mm | zone of inhibition at 25 µg/mL [7]: 20 mm | zone of inhibition at 75 µg/mL [8]: 33 mm | zone of inhibition at 100 µg/mL [9]: 33 mm | zone of inhibition at 25 µg/mL [10]: 10 mm | MIC [11]: 24 µg/mL (≈ 76.1 µM) | zone of inhibition at 75 µg/mL [12]: 27 mm | zone of inhibition at 50 µg/mL [13]: 23 mm | zone of inhibition at 50 µg/mL [14]: 22 mm | zone of inhibition at 75 µg/mL [15]: 26 mm | MIC [16]: 28 µg/mL (≈ 88.8 µM) | zone of inhibition at 100 µg/mL [17]: 23 mm | zone of inhibition at 100 µg/mL [18]: 35 mm | MIC [19]: 19 µg/mL (≈ 60.2 µM) | zone of inhibition at 50 µg/mL [20]: 17 mm | MIC [21]: 15 µg/mL (≈ 47.6 µM) | zone of inhibition at 25 µg/mL [22]: 14 mm | zone of inhibition at 50 µg/mL [23]: 22 mm | zone of inhibition at 100 µg/mL [24]: 34 mm | MIC [25]: 17 µg/mL (≈ 53.9 µM) | zone of inhibition at 75 µg/mL [26]: 26 mm | zone of inhibition at 100 µg/mL [27]: 37 mm | zone of inhibition at 25 µg/mL [28]: 14 mm | zone of inhibition at 100 µg/mL [29]: 31 mm | zone of inhibition at 100 µg/mL [30]: 37 mm | zone of inhibition at 75 µg/mL [31]: 20 mm | zone of inhibition at 50 µg/mL [32]: 24 mm | zone of inhibition at 25 µg/mL [33]: 17 mm | zone of inhibition at 75 µg/mL [34]: 28 mm | zone of inhibition at 100 µg/mL [35]: 37 mm | zone of inhibition at 50 µg/mL [36]: 26 mm | zone of inhibition at 50 µg/mL [37]: 14 mm | MIC [38]: 25 µg/mL (≈ 79.3 µM) | MIC [39]: 18 µg/mL (≈ 57.1 µM) | zone of inhibition at 25 µg/mL [40]: 15 mm
